Test results as given in patent publication US10870647B2, “Imidazopyridine derivative, method for preparing same, and pharmaceutical composition containing same as active ingredient for preventing or treating cancer” (DAEGU-GYEONGBUK MEDICAL INNOVATION FOUNDATION, priority 2016, dated 2020).

Legend:
Test in all cases: Kinase selectivity, scanMAX Kinase assay panel (DiscoverX), % control at 1 uM
Assay type in all cases: binding
[1] = target: T1, scanMAX Kinase assay panel (Homo sapiens, UniProt Q08345); settings: DDR1; 1 uM; read-out: Percent Control (%)
T1 construct: purchased DiscoverX
Method in brief: (§1)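 A single concentration of 1 uM, in DMSO, is applied across the kinase panel. Activity against an individual enzyme is assigned where % control is less than 35.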

[2] = target: T2, scanMAX Kinase assay panel (Homo sapiens, UniProt Q16584); settings: MLK3; 1 uM; read-out: Percent Control (%)
T2 construct: purchased DiscoverX
Method in brief: as §1

[3] = target: T3, scanMAX Kinase assay panel (Homo sapiens, UniProt Q9BZL6); settings: PRKD2; 1 uM; read-out: Percent Control (%)
T3 construct: purchased DiscoverX
T3 sequence (Q9BZL6 1-878): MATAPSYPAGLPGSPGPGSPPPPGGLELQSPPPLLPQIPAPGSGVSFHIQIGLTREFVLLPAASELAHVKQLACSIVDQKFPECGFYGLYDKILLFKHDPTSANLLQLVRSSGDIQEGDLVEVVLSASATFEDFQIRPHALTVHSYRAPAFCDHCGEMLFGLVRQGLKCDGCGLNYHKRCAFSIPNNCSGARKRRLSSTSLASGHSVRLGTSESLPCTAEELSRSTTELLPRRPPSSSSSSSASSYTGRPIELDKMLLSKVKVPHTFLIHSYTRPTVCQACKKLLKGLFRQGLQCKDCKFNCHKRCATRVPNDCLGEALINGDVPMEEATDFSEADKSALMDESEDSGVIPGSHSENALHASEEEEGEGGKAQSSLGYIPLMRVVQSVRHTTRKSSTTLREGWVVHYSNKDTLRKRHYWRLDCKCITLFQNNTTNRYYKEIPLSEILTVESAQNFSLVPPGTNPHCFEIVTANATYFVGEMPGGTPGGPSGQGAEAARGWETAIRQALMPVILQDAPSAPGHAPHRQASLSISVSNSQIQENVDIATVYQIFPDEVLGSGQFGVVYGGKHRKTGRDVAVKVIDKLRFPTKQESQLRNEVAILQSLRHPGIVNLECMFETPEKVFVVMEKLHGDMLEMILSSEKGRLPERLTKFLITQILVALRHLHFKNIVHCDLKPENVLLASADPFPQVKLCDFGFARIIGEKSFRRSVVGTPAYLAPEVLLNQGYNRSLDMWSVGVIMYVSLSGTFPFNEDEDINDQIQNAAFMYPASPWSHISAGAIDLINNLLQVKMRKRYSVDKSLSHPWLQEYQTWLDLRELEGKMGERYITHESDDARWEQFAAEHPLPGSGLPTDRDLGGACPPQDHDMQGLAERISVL
Method in brief: as §1

[4] = target: T4, scanMAX Kinase assay panel (Homo sapiens, UniProt Q9H2K8); settings: TAOK3; 1 uM; read-out: Percent Control (%)
T4 construct: purchased DiscoverX
T4 sequence (Q9H2K8 1-898): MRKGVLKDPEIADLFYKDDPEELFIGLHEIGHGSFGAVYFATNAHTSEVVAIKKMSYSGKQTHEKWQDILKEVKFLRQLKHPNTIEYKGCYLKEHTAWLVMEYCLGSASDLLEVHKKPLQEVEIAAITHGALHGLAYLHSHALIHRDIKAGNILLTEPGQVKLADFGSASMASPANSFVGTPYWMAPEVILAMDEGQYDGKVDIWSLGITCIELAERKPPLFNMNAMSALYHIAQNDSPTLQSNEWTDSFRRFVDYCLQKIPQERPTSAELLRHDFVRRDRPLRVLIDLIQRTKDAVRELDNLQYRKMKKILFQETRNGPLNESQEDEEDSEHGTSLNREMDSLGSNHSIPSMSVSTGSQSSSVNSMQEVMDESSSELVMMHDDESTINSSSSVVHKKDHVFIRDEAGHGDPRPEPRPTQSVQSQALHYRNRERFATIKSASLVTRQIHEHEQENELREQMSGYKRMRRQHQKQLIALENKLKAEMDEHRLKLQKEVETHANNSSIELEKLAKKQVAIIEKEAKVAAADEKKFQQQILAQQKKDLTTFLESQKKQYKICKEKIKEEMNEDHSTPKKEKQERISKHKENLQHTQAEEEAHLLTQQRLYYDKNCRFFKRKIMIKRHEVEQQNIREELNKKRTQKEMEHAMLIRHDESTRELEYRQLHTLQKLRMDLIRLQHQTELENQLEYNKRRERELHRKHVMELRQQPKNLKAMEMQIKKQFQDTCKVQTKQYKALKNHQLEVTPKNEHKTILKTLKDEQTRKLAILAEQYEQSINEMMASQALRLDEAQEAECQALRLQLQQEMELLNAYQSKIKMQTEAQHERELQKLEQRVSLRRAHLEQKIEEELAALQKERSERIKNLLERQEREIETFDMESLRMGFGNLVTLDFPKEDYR
Method in brief: as §1

T2 sequence (Q16584 whole entry): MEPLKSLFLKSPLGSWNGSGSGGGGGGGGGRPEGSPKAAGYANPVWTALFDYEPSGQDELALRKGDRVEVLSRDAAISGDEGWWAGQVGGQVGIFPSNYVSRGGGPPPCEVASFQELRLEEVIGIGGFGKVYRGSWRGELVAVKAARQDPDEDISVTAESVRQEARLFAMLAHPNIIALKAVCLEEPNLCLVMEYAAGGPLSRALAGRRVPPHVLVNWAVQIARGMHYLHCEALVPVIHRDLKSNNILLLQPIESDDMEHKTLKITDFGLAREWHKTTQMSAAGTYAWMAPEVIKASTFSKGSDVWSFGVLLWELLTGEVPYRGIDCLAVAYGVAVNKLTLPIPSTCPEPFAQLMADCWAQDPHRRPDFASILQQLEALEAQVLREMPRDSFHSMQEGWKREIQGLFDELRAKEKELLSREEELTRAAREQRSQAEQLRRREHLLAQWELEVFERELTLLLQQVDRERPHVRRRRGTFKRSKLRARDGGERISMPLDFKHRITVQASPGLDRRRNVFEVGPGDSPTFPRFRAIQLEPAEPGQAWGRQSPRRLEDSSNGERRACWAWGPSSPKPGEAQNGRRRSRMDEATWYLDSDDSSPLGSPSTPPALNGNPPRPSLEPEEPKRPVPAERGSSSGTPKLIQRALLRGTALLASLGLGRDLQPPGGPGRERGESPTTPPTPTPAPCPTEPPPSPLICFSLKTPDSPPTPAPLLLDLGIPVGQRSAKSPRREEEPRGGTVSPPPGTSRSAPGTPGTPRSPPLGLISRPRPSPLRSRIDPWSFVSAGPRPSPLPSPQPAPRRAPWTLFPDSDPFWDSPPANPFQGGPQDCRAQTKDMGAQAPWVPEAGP
T1 sequence (Q08345 19-913): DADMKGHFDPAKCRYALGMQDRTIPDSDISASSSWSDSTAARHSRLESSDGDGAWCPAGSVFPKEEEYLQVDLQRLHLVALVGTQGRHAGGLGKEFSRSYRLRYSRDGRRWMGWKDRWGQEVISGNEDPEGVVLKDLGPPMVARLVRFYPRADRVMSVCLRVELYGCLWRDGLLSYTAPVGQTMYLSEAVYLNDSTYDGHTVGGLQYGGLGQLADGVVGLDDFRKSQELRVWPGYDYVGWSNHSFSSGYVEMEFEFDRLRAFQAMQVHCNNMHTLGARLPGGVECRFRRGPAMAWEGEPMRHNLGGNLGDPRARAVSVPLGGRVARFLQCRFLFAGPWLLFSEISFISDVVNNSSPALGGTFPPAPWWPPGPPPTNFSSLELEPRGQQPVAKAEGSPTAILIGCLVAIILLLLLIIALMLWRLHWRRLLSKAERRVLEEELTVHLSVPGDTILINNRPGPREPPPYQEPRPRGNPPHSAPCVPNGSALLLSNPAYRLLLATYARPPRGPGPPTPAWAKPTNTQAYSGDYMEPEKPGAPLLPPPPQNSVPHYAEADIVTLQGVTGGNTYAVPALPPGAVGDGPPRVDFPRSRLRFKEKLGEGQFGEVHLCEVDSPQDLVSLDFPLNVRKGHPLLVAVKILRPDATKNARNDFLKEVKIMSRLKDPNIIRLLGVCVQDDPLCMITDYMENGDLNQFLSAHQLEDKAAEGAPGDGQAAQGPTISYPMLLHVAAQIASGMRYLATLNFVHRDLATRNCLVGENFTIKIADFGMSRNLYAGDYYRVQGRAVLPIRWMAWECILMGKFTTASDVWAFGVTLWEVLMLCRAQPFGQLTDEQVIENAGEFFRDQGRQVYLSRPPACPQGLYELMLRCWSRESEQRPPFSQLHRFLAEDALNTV

Compound	remaining binding at 1 µM [1] [%]	remaining binding at 1 µM [2] [%]	remaining binding at 1 µM [3] [%]	remaining binding at 1 µM [4] [%]
Cc1ccc(C(=O)Nc2ccc(CN3CCN(C)CC3)c(C(F)(F)F)c2)cc1C#Cc1cnc2c(Nc3cnn(C)c3)cccn12 [Example 1, 4-methyl-3-((8-((1-methyl-1H-pyrazol-4-yl)amino)imidazo[1,2-a]pyridin-3-yl)ethynyl)-N-(4-((4-methylpiperazin-1-yl)methyl)-3-(trifluoromethyl)phenyl)benzamide]	0	1	41	1
Cc1cn(-c2cc(NC(=O)c3ccc(C)c(C#Cc4cnc5c(Nc6cnn(C)c6)cccn45)c3)cc(C(F)(F)F)c2)cn1 [Example 12, 4-methyl-N-(3-(4-methyl-1H-imidazol-1-yl)-5-(trifluoromethyl)phenyl)-3-((8-((1-methyl-1H-pyrazol-4-yl)amino)imidazo[1,2-a]pyridin-3-yl)ethynyl)benzamide]	7	14	98	61
Cc1ccc(NC(=O)C2(C(=O)Nc3ccc(F)cc3)CC2)cc1C#Cc1cnc2c(Nc3cnn(C(C)C)c3)cccn12 [Example 78]	1	94	95	99
